The results in this text go back to US7632814B2, “HYD1 peptides as anti-cancer agents” (University of South Florida, priority 2006, dated 2009).

Where no end group is shown, it is not given here. [ ]: non-standard residue; d: D form.

One experiment has as its system 8226 cells. Briefly: Cell adhesion to fibronectin (crystal violet staining). Type of experiment: cell-based. The note with it: varying concentrations, 30 minutes pre-incubation, 2 hours adhesion. As to the method: FIGS. 30A and 30B are graphs showing that HYD1 but not the scrambled derivative HYD1S inhibited cell adhesion of both 8226 and H929 cells to FN. Varying concentrations of either HYD1, HYD1S, or a 1:100 dilution of either α4β1 or α5β1 integrin functional blocking antibodies was added to either (FIG. 30A) 8226 cell or (FIG. 30B) H929 cells for 30 minutes prior to adding cells to either FN or BSA coated wells. Cells were allowed to adhere for 2 hours and adherent cells were measured by crystal violet staining at 540 nm. Shown is the mean and standard deviation of a representative experiment performed in quadruplicate. Three independent experiments were performed and similar results were obtained.
Quantification of cell adhesion to fibronectin. […] Cell adhesion was detected by crystal violet staining as previously described (Damiano J S et al. Blood, 1999; 93:1658-1667; Hazlehurst L A et al. Oncogene, 2000; 19:4319-4327).
Briefly, 8226 myeloma cells were pre-incubated with varying concentrations of either HYD1 or the scrambled HYD1S peptide for 30 minutes prior to allowing cells to attach to FN for two hours. Following two hours of cell adhesion, the amount of cells adherent to FN was measured. […] Twenty-four hours after drug treatment, apoptosis was measured by Annexin V-PE positive events by FACS analysis. […]

Experiment [1] relates to phospho-Pyk2 in 8226 cells. Briefly: Phospho-Pyk2 levels (immunoblot). The class given is cell-based.
A further experiment has as its system H929 MM. Briefly: SCID-Hu in vivo model, tumor burden. The note with it: H929, 8 mg/kg I.P. daily for 14 days starting day 28. Details: species or system SCID mice. The method, then: Tumor burden was measured by circulating […] levels. On day 28 (before drug treatment), measurements were recorded for each individual mouse and subsequent values obtained weekly are represented as a ratio of day 28 (day X/day 28). N=4 mice per group. HYD1 was administered I.P. at 8 mg/kg daily for 14 days (starting day 28).
SCID-Hu model. The SCID-Hu model was performed as previously described (Zhu K et al. Blood, 2005; 105:4759-4766). Briefly, SCID/Beige mice 4-6 weeks old were purchased from Taconic (Germantown, N.Y.). Fetal tissue (18-23 weeks) was obtained from Advance Bioscience Resource (Alameda, Calif.) in compliance with state and federal government regulations. Two bones were surgically implanted in the mammary fat pad of 6-8 week old female SCID mice. […] At 28 days, baseline tumor burden was quantified in the sera using either a lambda (8226) or kappa (H929) ELISA kit per manufacture instructions (Bethyl, Montgomery, Tex.) and mice were randomized into treatment groups. […] Tumor burden was assessed weekly by measuring kappa or lambda levels in the sera.
The SCID-Hu model consists of implanting human fetal bone into the mammary mouse fat pad of SCID mice. […] Human paraprotein can be measured in the mouse sera and levels represent a good marker for evaluating tumor burden and response to chemotherapy. […]

For “kikmviswkg ([dK][dI][dK][dM][dV][dI][dS][dW][dK]G) [HYD1]”, in the experiment with 8226 cells, the “blocking of adhesion of 8226 cells to the extracellular matrix FN” value is “blocks adhesion of 8226 and H929 cells to the extracellular matrix FN in a dose dependent manner”. Besides, in experiment [1], the phospho-Pyk2 levels entry is “decreased levels of phospho-Pyk2”. Moreover, the “tumor growth in vivo compared to vehicle control” value in the experiment with H929 MM is “reduces H929 MM growth in vivo”.
